Measured values taken from US6482921B1, “Uridyl peptide antibiotic (UPA) derivatives, their synthesis and use” (Essential Therapeutics, Inc., priority 1999, dated 2002).
≈ marks a conversion by molar mass, not a printed value.

Legend:
Assay type in all cases: cell-based
[1] = test system: Pasteurella multocida pm002; experiment: MIC broth microdilution, P. multocida pm002 (wild type)
[2] = test system: Staphylococcus aureus 8325-4; experiment: MIC broth microdilution, S. aureus 8325-4 (wild type); details: S. aureus 8325-4
[3] = test system: Pseudomonas aeruginosa PAM 1323; experiment: MIC broth microdilution, P. aeruginosa PAM 1323 (medium level UPA resistance)
Protocol: Compounds were tested against several panels of bacteria. In a first panel, Table 3, several strains of Pseudomonas aeruginosa, Escherichia coli and Staphylococcus aureus were employed as the target bacteria.
For the bacteria in Table 3, the assay was performed in Mueller-Hinton Broth (MHB) with a final bacterial inoculum of 5×10^5 CFU/ml and a final volume of 100 μl. Control drugs, including imipenem and pacidimycin 4, and the test compounds were prepared at a concentration which was twice the desired final concentration (256 μg/ml). Dilution of the controls and the test compounds was accomplished directly on the test plates by serial 2-fold dilution using a multi-channel pipette. Both a positive and a negative growth control was included in each plate.
The bacterial inocula were prepared as follows. Bacterial strains were grown overnight at 35° C. in MHB. […] The culture was then diluted 1:10 and allowed to grow for an additional one hour at 35° C. in a shaking incubator. The inocula were then prepared by diluting the early log phase (one hour) cultures 1:2000 with fresh MHB. A volume of 50 μl of the inocula was added to each well, resulting in an inoculum of approximately 5×10^5 CFU/ml. The exact inocula were determined by putting 10 μl of 10-fold serial dilution of the bacterial suspensions onto TSA. After overnight incubation at 35° C., colony-forming units were counted manually.
The microtiter plates were incubated for 20 hours at 35° C. and were then read using a microtiterplate reader (Molecular Devices) at 650 nm as well as being visually observed using a microtiterplate reading mirror.

[4] = test system: Staphylococcus aureus ATCC 29213; experiment: MIC broth microdilution, S. aureus ATCC 29213 (wild type); details: S. aureus ATCC 29213
[5] = test system: Pseudomonas aeruginosa PAM 1154; experiment: MIC broth microdilution, P. aeruginosa PAM 1154 (OprM::Hg); details: P. aeruginosa PAM 1154 OprM::Hg
[6] = test system: Pseudomonas aeruginosa PAM 1020; experiment: MIC broth microdilution, P. aeruginosa PAM 1020 (wild type); details: P. aeruginosa PAM 1020
[7] = test system: Escherichia Coli MC 4100 AcrAB; experiment: MIC broth microdilution, E. coli MC 4100 AcrAB (ΔAcrAB); details: E. coli AcrAB
[8] = test system: Pseudomonas aeruginosa PAM 1135; experiment: MIC broth microdilution, P. aeruginosa PAM 1135 (high level UPA resistance); details: P. aeruginosa PAM 1135 UPA1^r
Escherichia Coli MC 4100 = experiment: MIC broth microdilution, E. coli MC 4100 (wild type); details: E. coli MC 4100
[9] = test system: Escherichia Coli MC 4100 AcrAB UPA3r; experiment: MIC broth microdilution, E. coli MC 4100 AcrAB UPA3r (ΔAcrAB, UPA resistant); details: E. coli AcrAB UPA3^r

Compound	MIC (μg/ml) Broth microdilution [1]	MIC (μg/ml) Broth microdilution [2]	MIC (μg/ml) Broth microdilution [3]	MIC (μg/ml) Broth microdilution [4]	MIC (μg/ml) Broth microdilution [5]	MIC (μg/ml) Broth microdilution [6]	MIC (μg/ml) Broth microdilution [7]	MIC (μg/ml) Broth microdilution [8]	MIC (μg/ml) Broth microdilution (Escherichia Coli MC 4100)	MIC (μg/ml) Broth microdilution [9]
CC(C(NC(=O)C(Cc1ccc(F)cc1)NC(=O)NC(Cc1c[nH]c2ccccc12)C(=O)O)C(=O)NCC1CC(O)C(n2ccc(=O)[nH]c2=O)O1)N(C)C(=O)C(N)Cc1ccccc1 [Compound 113, 1-[5′-[(2S,3S)-[N-[[(1S)-1-Carboxy-2-indol-3-ylethyl]carbamoyl]-L-4-fluorophenylalanyl]-N^3-L-phenylalanyl-N^3-methyl-2,3-diaminobutyramido]-3′,5′-dideoxy-α-L-arabinofuranosyl]uracil]	512 µg/mL (≈ 579 µM)	>512 µg/mL	>512 µg/mL	>512 µg/mL	64 µg/mL (≈ 72.4 µM)	64 µg/mL (≈ 72.4 µM)	8 µg/mL (≈ 9.05 µM)	>512 µg/mL	>512 µg/mL	64 µg/mL (≈ 72.4 µM)
CC(N)C(=O)N(C)C(C)C(NC(=O)C(Cc1ccc(F)cc1)NC(=O)NC(C(=O)O)c1ccccc1)C(=O)NCC1CC(O)C(n2ccc(=O)[nH]c2=O)O1 (mixture of isomers) [Compound 141, 1-[5′-[(2S,3S)-N^3-L-Alanyl-N^2-[N-[[α(R,S)-1-carboxy-phenmethyl]carbamoyl]-L-4-fluorophenylalanyl]-N^3-methyl-2,3-diaminobutyramido]-3′,5′-dideoxy-α-L-arabinofuranosyl]uracil]	>512 µg/mL	>512 µg/mL	>512 µg/mL	>512 µg/mL	512 µg/mL	>512 µg/mL	16 µg/mL	>512 µg/mL	>512 µg/mL	>512 µg/mL
CN[C@@H](C)[C@H](NC(=O)[C@H](Cc1ccccc1)NC(=O)N[C@@H](Cc1c[nH]c2ccccc12)C(=O)O)C(=O)NC[C@H]1C[C@@H](O)[C@H](n2ccc(=O)[nH]c2=O)O1 [Compound 151, 1-[5′-[(2S,3S)-N^2-[N-[[(1S)-1-Carboxy-2-indol-3-ylethyl]carbamoyl]-L-phenylalanyl]-N^3-methyl-2,3-diaminobutyramido]-3′,5′-dideoxy-α-L-arabinofuranosyl]uracil]	256 µg/mL (≈ 356 µM)	>512 µg/mL	256 µg/mL (≈ 356 µM)	>512 µg/mL	32 µg/mL (≈ 44.5 µM)	256 µg/mL (≈ 356 µM)	4 µg/mL (≈ 5.57 µM)	256 µg/mL (≈ 356 µM)	512 µg/mL (≈ 712 µM)	128 µg/mL (≈ 178 µM)
CC(C(NC(=O)C(Cc1ccc(F)cc1)NC(=O)NC(Cc1ccc(O)cc1)C(=O)O)C(=O)NCC1CC(O)C(n2ccc(=O)[nH]c2=O)O1)N(C)C(=O)CCCCN [Compound 124, 1-[5′-[(2S,3S)-N^3-(5-Aminopentanoyl)-N^2-[N-[[(1S)-1-carboxy-4-hydroxyphenethyl]carbamoyl]-L-4-fluorophenylalanyl]-N^3-methyl-2,3-diaminobutyramido]-3′,5′-dideoxy-α-L-arabinofuranosyl]uracil]	>512 µg/mL	>512 µg/mL	>512 µg/mL	>512 µg/mL	128 µg/mL (≈ 157 µM)	512 µg/mL (≈ 630 µM)	2 µg/mL (≈ 2.46 µM)	>512 µg/mL	256 µg/mL (≈ 315 µM)	128 µg/mL (≈ 157 µM)
CSCCC(NC(=O)NC(Cc1c[nH]c2ccccc12)C(=O)O)C(=O)NC(C(=O)NCC1CC(O)C(n2ccc(=O)[nH]c2=O)O1)C(C)N(C)C(=O)C(N)Cc1ccccc1 [Compound 111, 1-[5′-[(2S,3S)-N^2-[N-([(1S)-1-Carboxy-2-indol-3-ylethyl]carbamoyl]-L-methionyl]-N^3-L-phenylalanyl-N^3-methyl-2,3-diaminobutyramido]-3′,5′-dideoxy-α-L-arabinofuranosyl]uracil]	512 µg/mL (≈ 602 µM)	>512 µg/mL	256 µg/mL (≈ 301 µM)	>512 µg/mL	16 µg/mL (≈ 18.8 µM)	128 µg/mL (≈ 151 µM)	8 µg/mL (≈ 9.41 µM)	256 µg/mL (≈ 301 µM)	512 µg/mL (≈ 602 µM)	512 µg/mL (≈ 602 µM)
C[C@H](N)C(=O)N(C)[C@@H](C)[C@H](NC(=O)[C@H](Cc1ccccc1F)NC(=O)N[C@@H](Cc1ccc(O)cc1)C(=O)O)C(=O)NC[C@H]1C[C@@H](O)[C@H](n2ccc(=O)[nH]c2=O)O1 [Compound 140, 1-[5′-[(2S,3S)-N^3-L-Alanyl-N^2-[N-[[(1S)-1-carboxy-4-hydroxyphenethyl]carbamoyl]-L-2-fluorophenylalanyl]-N^3-methyl-2,3-diaminobutyramido]-3′,5′-dideoxy-α-L-arabinofuranosyl]uracil]	>512 µg/mL	512 µg/mL (≈ 652 µM)	512 µg/mL (≈ 652 µM)	512 µg/mL (≈ 652 µM)	4 µg/mL (≈ 5.1 µM)	64 µg/mL (≈ 81.5 µM)	<1 µg/mL	>512 µg/mL	64 µg/mL (≈ 81.5 µM)	8 µg/mL (≈ 10.2 µM)
CC(N)C(=O)N(C)C(C)C(NC(=O)C(CCc1ccccc1)NC(=O)NC(Cc1ccc(O)cc1)C(=O)O)C(=O)NCC1CC(O)C(n2ccc(=O)[nH]c2=O)O1 [Compound 137, 1-[5′-[(2S,3S)-N^3-L-Alanyl-N^2-[N-[[(1S)-1-carboxy-4-hydroxyphenethyl]carbamoyl]-L-homophenylalanyl]-N^3-methyl-2,3-diaminobutyramido]-3′,5′-dideoxy-α-L-arabinofuranosyl]uracil]	>512 µg/mL	>512 µg/mL	>512 µg/mL	>512 µg/mL	128 µg/mL (≈ 164 µM)	64 µg/mL (≈ 82 µM)	16 µg/mL (≈ 20.5 µM)	>512 µg/mL	512 µg/mL (≈ 656 µM)	256 µg/mL (≈ 328 µM)
1-[5′[(2S,3S)-N^2-[N-[[(1S)-1-Carboxy-4-hydroxyphenethyl]carbamoyl]-L-4-fluorophenylalanyl)-N^3-L-phenylalanyl-N^3-methyl-2,3-diaminobutyramido]-3′,5′-dideoxy-β-L-arabinofuranosyl]uracil [Compound 106]	512 µg/mL	>512 µg/mL	256 µg/mL	>512 µg/mL	64 µg/mL	32 µg/mL	8 µg/mL	256 µg/mL	512 µg/mL	512 µg/mL
CC(C)CC(N)C(=O)N(C)C(C)C(NC(=O)C(Cc1ccc(F)cc1)NC(=O)NC(Cc1ccc(O)cc1)C(=O)O)C(=O)NCC1CC(O)C(n2ccc(=O)[nH]c2=O)O1 [Compound 107, 1-[5′[(2S,3S)-N^2-[N-[[(1S)-1-Carboxy-4-hydroxyphenethyl]carbamoyl]-L-4-fluorophenylalanyl]-N^3-L-leucyl-N^3-methyl-2,3-diaminobutyramido]-3′,5′-dideoxy-α-L-arabinofuranosyl]uracil]	>512 µg/mL	>512 µg/mL	>512 µg/mL	>512 µg/mL	64 µg/mL (≈ 77.4 µM)	256 µg/mL (≈ 310 µM)	<1 µg/mL	>512 µg/mL	16 µg/mL (≈ 19.3 µM)	8 µg/mL (≈ 9.67 µM)
